Measured values published in patent publication US12692265B2, “Solid state forms of Ensifentrine and process for preparation thereof” (ASSIA CHEMICAL INDUSTRIES LTD., priority 2021, dated 2026).

Columns and labels:
Format in all cases: physicochemical
[1] = Grinding experiments (strong grinding, solvent drop grinding; XRPD); conditions: for XRPD analysis results: 2 minutes
Experimental: (§1) X-ray diffraction was performed on X-Ray powder diffractometer: • Bruker D8 Advance; CuKα radiation (λ=1.5418 Å); Lynx eye detector; laboratory temperature 22-25° C.; PMMA specimen holder ring with silicon low background. Prior to analysis, the samples were gently ground by means of mortar and pestle in order to obtain a fine powder. The ground sample was adjusted into a cavity of the sample holder and the surface of the sample was smoothed by means of a cover glass. Measurement Parameters: • Scan range: 2-40 degrees 2-theta; • Scan mode: continuous; • Step size: 0.05 degrees; • Time per step: 0.5 s; • Sample spin: 30 rpm; • Sample holder: PMMA specimen holder ring with silicon low background.
Samples of Ensifentrine ethane-1,2-disulfonate form ES2 were subjected to strong grinding, and to solvent drop grinding in water and ethanol. Grinding was carried out on the samples alone, or in the presence of ethanol or water. In these experiments, about 20 mg of the sample is placed in a mortar and ground with a pestle for 2 minutes. The solvent, when used, as added to the crystalline material before grinding, in a volume of 10 microlitres. XRPD analysis performed on each of the samples after the grinding experiment, confirmed no change in the starting material (Table 3): […]

[2] = Storage stability at different relative humidities and temperatures, 6 months (XRPD)
Experimental: as §1
Samples of Ensifentrine ethane-1,2-disulfonate form ES2 were subjected to conditions of different relative humidities at different temperatures. XRPD analysis was performed on the samples after 6 months.

[3] = Thermal stability (heating, XRPD); conditions: heating up to 100° C. for 30 minutes
Experimental: as §1
XRPD analysis of the sample confirmed no change in the starting material (Table 4): […]

XRPD analysis results ([1]; Solvent-drop grinding (ethanol), 10 microlitres): No change | XRPD analysis results ([1]; Solvent-drop grinding (water), 10 microlitres): No change | XRPD analysis results ([1]; Strong grinding, about 20 mg, mortar and pestle): No change | XRPD analysis after the grinding experiment ([1]; each of the samples: alone, with ethanol, with water): no change | XRPD analysis results ([2]; 25° C., 60% RH): No change | XRPD analysis results ([2]; 40° C., 75% RH): No change | XRPD analysis after heating [3]: no change
Substance: Ensifentrine ethane-1,2-disulfonate
